What was measured:
[1] = TAC measured in the fish tanks of Comparative Example 2; format: physicochemical; settings: 10 minutes after addition of 300 mg MC in 95% EtOH diluted to 100 mL
Description: (§1) The fish were allowed to acclimate with their surroundings for a period of three days. For the experimental tanks, 300 mg of MC dissolved in 30 g 95% EtOH followed by dilution to 100 mLs total volume with DI water was added. For the control tanks 30 g 95% EtOH diluted to 100 mLs total volume with DI water was added. TAC was measured in the experimental tanks 10 minutes after the addition of the MC solution: HEX-2=7.1 ppm TAC; HEX-4=6.0 ppm TAC. Within three hours, all 11 of the Glow Lite Tetras were dead and 3 out of 5 Black Skirt Tetras were dead.
(§2) The fish were allowed to acclimate with their surroundings for a period of 4 hours. All tanks began with 0 ppm TAC. Tablets of MC made from 0.11 g MC pressed with 0.89 g MgSO4, with a ⅝″-diameter tablet as described in EXAMPLE 1 were added to each tank as follows: • (a) Hex-1: 5 Black Skirt Tetras—3 tablets on day 1, 4 tablets on day 2 • (b) Hex-3: 5 Glow Lite Tetras—3 tablets on day 1, 3 tablets on day 2 • (c) Hex-4: 5 Glow Lite Tetras—2 tablets on day 1, 2 tablets on day 2
(§3) Tanks Hex-1 and 2 measured above 6 ppm TAC each day, but took approximately three hours to reach a TAC above 6 ppm. HEX 4 rose to a TAC level of 4.1 ppm TAC within the first day. No fish died throughout the 48-hour experiment.

[2] = system: Black Skirt Tetras (Gymnocorymbus ternetzi); assay: Fish mortality, MC in ethanol vs MC tablets (Comparative Example 2); format: in vivo; settings: 300 mg MC in 95% EtOH/water added at once, 7.1 ppm TAC
Description: (§4) A study was performed in which GlowLite (Hemigrammus erthrozonus) and Black Skirt Tetras (Gymnocorymbus ternetzi) were subjected to treatment with MC dissolved in 95% Ethanol (then diluted with water) and another set of the same fish subjected to MC tablets as described in EXAMPLE 1 dosed to equal levels of MC.
(§5) Part 1: Four 5-gallon hexagonal fish tanks were set up as follows: • (a) Hex-1: 5 Black Skirt Tetras (Control Tank—0 ppm TAC) • (b) Hex-2: 5 Black Skirt Tetras (Experimental Tank) • (c) Hex-3: 11 Glow Lite Tetras (Control Tank—0 ppm TAC) • (d) Hex-4: 11 Glow Lite Tetras (Experimental Tank)
as §1
(§6) Part 2: Three 5-gallon hexagonal fish tanks were set up as follows: • (a) Hex-1: 5 Black Skirt Tetras • (b) Hex-3: 5 Glow Lite Tetras • (c) Hex-4: 5 Glow Lite Tetras
as §2, §3

[3] = system: GlowLite (Hemigrammus erthrozonus); assay: as above; format: in vivo; settings: of 11 Glow Lite Tetras, within three hours; 300 mg MC in 95% EtOH/water added at once, 6.0 ppm TAC
Description: as §4, §5, §1, §6, §2, §3

Q: With CC1(C)NC(=O)C(C)(C)N1Cl [MC, 1-Chloro-2,2,5,5-tetramethylimidazolidin-4-one] as the compound, how does the “TAC in experimental tank” value ([1]; HEX-2 (Black Skirt Tetras)) read?
A: The value was 7.1 ppm TAC.

Q: What about the “TAC in experimental tank” value ([1]; HEX-4 (Glow Lite Tetras)) of the same compound?
A: The value was 6.0 ppm TAC.

Q: What about the dead fish ([2]; within 24 hours) of the same compound?
A: The dead fish was “the remainder of the Black Skirt Tetras were dead”.

Q: And the dead fish ([2]; within three hours)?
A: Its dead fish is 3 out of 5.

Q: What about the dead fish [3] of the same compound?
A: Its dead fish is 11.
